Data taken from ChEMBL document CHEMBL1149020, “Sesterterpenes from a common marine sponge, Hyrtios erecta” (1986).

Species on record: Mus musculus
Test: Antiinflammatory activity against PMA-induced ear inflammation in mouse assessed as decrease in ear weight at 50 ug/ear
Assay type: functional
Parameters: scale not given: the % may be the effect or the level left

Structure (SMILES): CC(=O)O[C@@H]1C[C@H]2[C@@](C)(CC[C@H]3C(C)(C)CCC[C@]23C)[C@@H]2CC=C(C=O)C[C@]21C [HYRTIAL]
- Activity: 43%
